Measured values published in patent US20160039880A1 (priority 2012, published 2016).
Read-outs that look alike come from different tables or passages of the source. One block for each molecule: values may come before it.

Assays:
[1] = target: T1, Human recombinant cyclophilin A (Cyp A) (Homo sapiens, UniProt P62937); assay: Protease-free PPIase assay; settings: read-out: Protease-free PPIase Assay Ki;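 further: cis to trans isomerization of SUC-AAPF-pNA by 2 nM enzyme, read as absorbance at 330 nm over 300 s at 10 °C, catalytic rate corrected for uncatalyzed background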
T1 sequence (P62937 whole entry): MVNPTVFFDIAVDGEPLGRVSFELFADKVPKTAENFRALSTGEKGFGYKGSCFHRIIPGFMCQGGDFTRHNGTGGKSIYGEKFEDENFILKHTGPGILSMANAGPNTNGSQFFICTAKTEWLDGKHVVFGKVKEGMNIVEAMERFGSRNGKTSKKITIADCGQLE

Calcineurin = Calcineurin (Homo sapiens, UniProt P62937+P63098+Q08209); assay: Calcineurin Phosphatase (CaN) Assay with Cyp A (+CypA); settings: read-out: Calcineurin Phosphatase (CaN) Assay (+CypA) IC50, in the presence of Cyp A
Chain of Calcineurin (P63098 whole entry, other chains not shown): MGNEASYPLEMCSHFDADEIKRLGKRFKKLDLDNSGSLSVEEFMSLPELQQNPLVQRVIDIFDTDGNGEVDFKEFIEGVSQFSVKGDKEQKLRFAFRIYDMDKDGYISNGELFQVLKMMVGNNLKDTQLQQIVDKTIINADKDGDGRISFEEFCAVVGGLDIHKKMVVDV
Chain of Calcineurin (P62937 whole entry, other chains not shown): as the sequence (P62937 whole entry) above

[2] = target: T1, Human recombinant cyclophilin A (Cyp A)
[3] = Water Solubility Assay (measured in pH 7.8 buffer); format: physicochemical;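 further: precipitation onset detected as rise in absorbance at 650 nm across increasing concentrations, after shaking for 18 h, blank wells receiving DMSO only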
[4] = Cyclophilin A (Cyp A) inhibitory activity
[5] = 35 mM HEPES pH 7.8, 1% DMSO, 25 °C, 18 h, read-out: Water Solubility Assay, concentration at which the compound remains in solution
[6] = pH 7.8, read-out: Water Solubility Assay

Molecule: CCC1NC(=O)C(C(O)C(C)CCN2CCCCO2)N(C)C(=O)C(C(C)C)N(C)C(=O)C(CC(C)C)N(C)C(=O)C(CC(C)C)N(C)C(=O)C(C)NC(=O)C(C)NC(=O)C(CC(C)C)N(C)C(=O)C(C(C)C)NC(=O)C(CC(C)C)N(C)C(=O)C(C)N(C)C1=O [Compound ED, [(3R,4R,5S)-4-Hydroxy-3-methyl-5-(methylamino)-1-([1,2]oxazinan-2-yl)-hexanoic acid]^1[(R)-methyl-Sar]^3 cyclosporin A]
Ki [1, 4]: 3.8 nM
IC50 (Calcineurin): > 10000 nM

Ki [2]: 2.3 nM
solubility at 18 h [3, 5]: >100 µM
Molecule: CC[C@H]1NC(=O)[C@@H]([C@H](O)[C@H](C)CCCC(=O)NCC2COCCO2)N(C)C(=O)[C@@H](C(C)C)N(C)C(=O)[C@@H](CC(C)C)N(C)C(=O)[C@@H](CC(C)C)N(C)C(=O)[C@H](C)NC(=O)[C@@H](C)NC(=O)[C@@H](CC(C)C)N(C)C(=O)[C@@H](C(C)C)NC(=O)[C@H](CC(C)C)N(C)C(=O)[C@@H](C)N(C)C1=O (stereo partly shown) [Compound ZX]

Ki [2]: 5.7 nM
Water Solubility Assay, concentration at which the compound remains in solution ([3]; 35 mM HEPES pH 7.8, 1% DMSO, 25 °C, 18 h): 75 to 100 µM
Molecule: CC[C@H]1NC(=O)[C@@H]([C@H](O)[C@H](C)CCCC(=O)NCCOC)N(C)C(=O)[C@@H](C(C)C)N(C)C(=O)[C@@H](CC(C)C)N(C)C(=O)[C@@H](CC(C)C)N(C)C(=O)[C@H](C)NC(=O)[C@@H](C)NC(=O)[C@@H](CC(C)C)N(C)C(=O)[C@@H](C(C)C)NC(=O)[C@H](CC(C)C)N(C)C(=O)[C@@H](C)N(C)C1=O [Compound ZY, [(5R,6R,7S)-6-hydroxy-5-methyl-7-(methylamino)-1-(2-methoxyethylamino)-1-oxo-octanoic acid]1[(R)-methyl-Sar]3 cyclosporin A]

Molecule: CC[C@H]1NC(=O)[C@@H]([C@H](O)[C@H](C)CCCC(=O)N(CC)CC)N(C)C(=O)[C@@H](C(C)C)N(C)C(=O)[C@@H](CC(C)C)N(C)C(=O)[C@@H](CC(C)C)N(C)C(=O)[C@H](C)NC(=O)[C@@H](C)NC(=O)[C@@H](CC(C)C)N(C)C(=O)[C@@H](C(C)C)NC(=O)[C@H](CC(C)C)N(C)C(=O)[C@@H](C)N(C)C1=O [Compound U, [(5R,6R,7S)-6-hydroxy-5-methyl-7-(methylamino)-1-diethylamino-1-oxo-octanoic acid]^1[(R)-methyl-Sar]^3 cyclosporin A]
Ki ([1]; cyclophilin A, 10 °C): 4 nM
IC50 (Calcineurin; 1:1 complex with inhibitor): > 10000 nM

Ki [2]: 2 nM
solubility at 18 h [3, 5]: >100 µM
Molecule: CC[C@H]1NC(=O)[C@@H]([C@H](O)[C@H](C)CCCC(=O)N2CCS(=O)(=O)CC2)N(C)C(=O)[C@@H](C(C)C)N(C)C(=O)[C@@H](CC(C)C)N(C)C(=O)[C@@H](CC(C)C)N(C)C(=O)[C@H](C)NC(=O)[C@@H](C)NC(=O)[C@@H](CC(C)C)N(C)C(=O)[C@@H](C(C)C)NC(=O)[C@H](CC(C)C)N(C)C(=O)[C@@H](C)N(C)C1=O [Compound Z, [(5R,6R,7S)-6-hydroxy-5-methyl-7-(methylamino)-1-({1,1-dioxo}thiomorpholin-4-yl)-1-oxo-octanoic acid]^1[(R)-methyl-Sar]^3 cyclosporin A]

Ki [2]: 4.1 nM
solubility at 18 h [3, 5]: >100 µM
Molecule: CCC1NC(=O)C(C(O)C(C)CCCC(=O)NCCc2c[nH]cn2)N(C)C(=O)C(C(C)C)N(C)C(=O)C(CC(C)C)N(C)C(=O)C(CC(C)C)N(C)C(=O)C(C)NC(=O)C(C)NC(=O)C(CC(C)C)N(C)C(=O)C(C(C)C)NC(=O)C(CC(C)C)N(C)C(=O)C(C)N(C)C1=O [Compound Y, [(5R,6R,7S)-6-hydroxy-5-methyl-7-(methylamino)-1-(2-{1H-imidazol-4-yl}-ethylamino)-1-oxo-octanoic acid]^1[(R)-methyl-Sar]^3 cyclosporin A]

Molecule: CCC1NC(=O)C(C(O)C(C)CCN2CCn3cc(C(F)(F)F)nc3C2)N(C)C(=O)C(C(C)C)N(C)C(=O)C(CC(C)C)N(C)C(=O)C(CC(C)C)N(C)C(=O)C(C)NC(=O)C(C)NC(=O)C(CC(C)C)N(C)C(=O)C(C(C)C)NC(=O)C(CC(C)C)N(C)C(=O)C(C)N(C)C1=O [Compound EE, [(3R,4R,5S)-4-Hydroxy-3-methyl-5-(methylamino)-1-(2-trifluoromethyl-5,6-dihydro-8H-imidazo[1,2-a]pyrazin-7-yl)-hexanoic acid]^1[(R)-methyl-Sar]^3 cyclosporin A]
Ki [1, 4]: 9.1 nM
IC50 (Calcineurin): > 10000 nM

Ki [2]: 8.2 nM
solubility at 18 h [3, 6]: >100 µM
Molecule: CCC1NC(=O)C(C(O)C(C)CCN2CCCN(C)CC2)N(C)C(=O)C(C(C)C)N(C)C(=O)C(CC(C)C)N(C)C(=O)C(CC(C)C)N(C)C(=O)C(C)NC(=O)C(C)NC(=O)C(CC(C)C)N(C)C(=O)C(C(C)C)NC(=O)C(CC(C)C)N(C)C(=O)C(C)N(C)C1=O [Compound EG, [[(3R,4R,5S)-4-Hydroxy-3-methyl-5-(methylamino)-1-(4-methyl-[1,4]diazepan-1-yl)-hexanoic acid]^1[(R)-methyl-Sar]^3 cyclosporin A]

Molecule: CC[C@H]1NC(=O)[C@@H]([C@H](O)[C@H](C)CCN2CCOCC2)N(C)C(=O)[C@@H](C(C)C)N(C)C(=O)[C@@H](CC(C)C)N(C)C(=O)[C@@H](CC(C)C)N(C)C(=O)[C@H](C)NC(=O)[C@@H](C)NC(=O)[C@@H](CC(C)C)N(C)C(=O)[C@@H](C(C)C)NC(=O)[C@H](CC(C)C)N(C)C(=O)[C@@H](SC)N(C)C1=O [Compound K, [(3R,4R,5S)-4-hydroxy-3-methyl-5-(methylamino)-1-N-morpholino-hexanoic acid]^1[(S)-thiomethyl-Sar]^3 cyclosporin A]
IC50 (Calcineurin; 1:1 complex with inhibitor): > 10000 nM

Ki [2]: 5 nM
solubility at 18 h [3, 5]: >100 µM
Molecule: CC[C@H]1NC(=O)[C@@H]([C@H](O)[C@H](C)CCCC(=O)N2CCN(C)CC2)N(C)C(=O)[C@@H](C(C)C)N(C)C(=O)[C@@H](CC(C)C)N(C)C(=O)[C@@H](CC(C)C)N(C)C(=O)[C@H](C)NC(=O)[C@@H](C)NC(=O)[C@@H](CC(C)C)N(C)C(=O)[C@@H](C(C)C)NC(=O)[C@H](CC(C)C)N(C)C(=O)[C@@H](C)N(C)C1=O [Compound T, [(5R,6R,7S)-6-hydroxy-5-methyl-7-(methylamino)-1-(4-methylpiperazin-1-yl)-1-oxo-octanoic acid]^1[(R)-methyl-Sar]^3 cyclosporin A]

Molecule: CCC1NC(=O)C(C(O)C(C)CCCC(=O)NCCS(=O)(=O)N(C)C)N(C)C(=O)C(C(C)C)N(C)C(=O)C(CC(C)C)N(C)C(=O)C(CC(C)C)N(C)C(=O)C(C)NC(=O)C(C)NC(=O)C(CC(C)C)N(C)C(=O)C(C(C)C)NC(=O)C(CC(C)C)N(C)C(=O)C(C)N(C)C1=O [Compound W, [(5R,6R,7S)-6-hydroxy-5-methyl-7-(methylamino)-1-(2-{sulfonic acid dimethylamide}-ethylamino)-1-oxo-octanoic acid]^1[(R)-methyl-Sar]^3 cyclosporin A]
Ki [2]: 1.9 nM
solubility at 18 h [3, 5]: >100 µM

Ki [2]: 17 nM
solubility at 18 h [3, 6]: >100 µM
Molecule: CCC1NC(=O)C(C(O)C(C)CCN2CC(OC)C2)N(C)C(=O)C(C(C)C)N(C)C(=O)C(CC(C)C)N(C)C(=O)C(CC(C)C)N(C)C(=O)C(C)NC(=O)C(C)NC(=O)C(CC(C)C)N(C)C(=O)C(C(C)C)NC(=O)C(CC(C)C)N(C)C(=O)C(C)N(C)C1=O [Compound EH, [[(3R,4R,5S)-4-Hydroxy-1-(3-methoxy-azetidin-1-yl)-3-methyl-5-(methylamino)-hexanoic acid]^1[(R)-methyl-Sar]^3 cyclosporin A]

Ki [2]: 7.3 nM
Molecule: CC[C@H]1NC(=O)[C@@H]([C@H](O)[C@H](C)CCN2CCN(C)CC2)N(C)C(=O)[C@@H](C(C)C)N(C)C(=O)[C@@H](CC(C)C)N(C)C(=O)[C@@H](CC(C)C)N(C)C(=O)[C@H](C)NC(=O)[C@@H](C)NC(=O)[C@@H](CC(C)C)N(C)C(=O)[C@@H](C(C)C)NC(=O)[C@H](CC(C)C)N(C)C(=O)[C@@H](C)N(C)C1=O [Compound L, [(3R,4R,5S)-4-hydroxy-3-methyl-5-(methylamino)-1-(4-methylpiperazino)-hexanoic acid]^1[(R)-Me-Sar]^3 cyclosporin A]

Ki [2]: 12 nM
Molecule: CC[C@H]1NC(=O)[C@@H]([C@H](O)[C@H](C)CCN(C)CC2COCCO2)N(C)C(=O)[C@@H](C(C)C)N(C)C(=O)[C@@H](CC(C)C)N(C)C(=O)[C@@H](CC(C)C)N(C)C(=O)[C@H](C)NC(=O)[C@@H](C)NC(=O)[C@@H](CC(C)C)N(C)C(=O)[C@@H](C(C)C)NC(=O)[C@H](CC(C)C)N(C)C(=O)[C@@H](C)N(C)C1=O (stereo partly drawn) [Compound AJ, [(3R,4R,5S)-4-Hydroxy-3-methyl-5-(methylamino)-1-(1,4-dioxan-2-ylmethyl)methylamino-hexanoic acid]^1[(R)-methyl-Sar]^3 cyclosporin A]

Molecule: CCC1NC(=O)C(C(O)C(C)CCCN2CCOCC2)N(C)C(=O)C(C(C)C)N(C)C(=O)C(CC(C)C)N(C)C(=O)C(CC(C)C)N(C)C(=O)C(C)NC(=O)C(C)NC(=O)C(CC(C)C)N(C)C(=O)C(C(C)C)NC(=O)C(CC(C)C)N(C)C(=O)CN(C)C1=O [Compound EI, [(4R,5R,6S)-5-Hydroxy-4-methyl-6-(methylamino)-1-(morpholin-4-yl)-heptanoic acid]^1 cyclosporin A]
Ki [2]: 14 nM

Molecule: CC[C@H]1NC(=O)[C@@H]([C@H](O)[C@H](C)CCCC(=O)N2CCOCC2)N(C)C(=O)[C@@H](C(C)C)N(C)C(=O)[C@@H](CC(C)C)N(C)C(=O)[C@@H](CC(C)C)N(C)C(=O)[C@H](C)NC(=O)[C@@H](C)NC(=O)[C@@H](CC(C)C)N(C)C(=O)[C@@H](C(C)C)NC(=O)[C@H](CC(C)C)N(C)C(=O)CN(C)C1=O [Compound E, [(5R,6R,7S)-6-hydroxy-5-methyl-7-(methylamino)-1-N-morpholino-1-oxo-octanoic acid]^1 cyclosporin A]
IC50 (Calcineurin; 1:1 complex with inhibitor): > 10000 nM

Ki [2]: 27 nM
Molecule: [(3R,4R,5S)-4-Hydroxy-3-methyl-5-(methylamino)-1-2-(N,N-diethylamino)ethoxy-hexanoic acid]^1[(S)-thio-isopropyl-Sar]^3 cyclosporin A [Compound AL]
